From the NIST ThermoML archive (doi:10.1021/je500305u)

Assay: mn = molality of the nth substance listed, in mol/kg
Conditions: Liquid, Vibrating tube method

NCC(=O)[O-].[K+] [potassium glycinate] + O
mass density [kg/m3], 101 kPa
Conditions | m1 = 0.99 | m1 = 1.78
293 K | 1065 | 1130
298 K | 1064 | 1128
303 K | 1062 | 1126
308 K | 1060 | 1124
313 K | 1058 | 1121
318 K | 1056 | 1119
323 K | 1053 | 1116
328 K | 1051 | 1114
333 K | 1048 | 1111
338 K | 1045 | 1108
343 K | 1042 | 1105
348 K | 1039 | 1102
353 K | 1036 | 1099
358 K | 1033 | 1096
363 K | 1030 | 1093
373 K | 1023 | 1086
393 K | 1007 | –

NCCS(=O)(=O)[O-].[K+] [potassium taurate] + O
mass density [kg/m3]
Conditions | m1 = 0.89 | m1 = 1.6
283 K | 1084 | –
288 K | 1083 | –
293 K | 1081 | 1145
298 K | 1079 | 1143
303 K | 1078 | 1141
308 K | 1076 | 1139
313 K | 1073 | 1136
318 K | 1071 | 1134
323 K | 1069 | 1131
328 K | 1066 | 1129
333 K | 1064 | 1126
338 K | 1061 | 1123
343 K | 1058 | 1120
348 K | – | 1117
353 K | 1051 | 1114
358 K | – | 1111
363 K | – | 1108
373 K | 1037 | 1101
393 K | 1021 | 1086
